Consider one compound from patent publication US8852928B2, “LexA-based chemical-inducible gene expression system for use in transgenic animals” (Temasek Life Sciences Laboratory Limited, priority 2007, dated 2014).

This assay addresses T1, LexPR transactivator (Homo sapiens, UniProt P06401).
T1 construct: expressed in transfected cells; host or cells: germline-transgenic zebrafish (Danio rerio) carrying the Ds transposon driver cassette pDs(krt8:LPR-LOP:G4) or derivatives
T1 sequence (P06401 640-914): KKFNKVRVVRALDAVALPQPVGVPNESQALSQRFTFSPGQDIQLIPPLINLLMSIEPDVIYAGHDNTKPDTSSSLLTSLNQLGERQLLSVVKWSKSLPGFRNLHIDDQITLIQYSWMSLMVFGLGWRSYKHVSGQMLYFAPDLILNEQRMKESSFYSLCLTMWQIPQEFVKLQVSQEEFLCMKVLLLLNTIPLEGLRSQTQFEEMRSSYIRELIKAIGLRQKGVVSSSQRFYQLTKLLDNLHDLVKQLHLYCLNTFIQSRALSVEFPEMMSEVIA
In words: Control of maternal EGFP expression by treating transgenic females. The assay is classed as in vivo, zebrafish. The following applies: 1 μM for 12 hours before crossing.

“Also recorded” adds a separate entry of the source.

As for `CC#C[C@]1(O)CC[C@H]2[C@@H]3CCC4=CC(=O)CCC4=C3[C@@H](c3ccc(N(C)C)cc3)C[C@@]21C` [mifepristone], the “Maternal EGFP expression in offspring of treated transgenic F2 females” value is listed as “produced GFP-positive eggs; also recorded: All the F3 embryos showed maternal EGFP expression”.
